Experimental data from US20240350469A1, “TREATMENT OF LOWER RESPIRATORY TRACT INFECTION WITH TRADIPITANT” (Vanda Pharmaceuticals Inc., priority 2021, published 2024).

Tested on: severe or critical COVID-19 infection
Test: Randomized, double-blind, placebo-controlled study of tradipitant in hospitalized patients with COVID-19 pneumonia (interim analysis, ITT)
Assay type: in vivo
Details: ITT; for Hazard ratio (95% CI), responder as improvement of 2 or more points: tradipitant vs placebo, Cox model, >1 benefit for tradipitant
[1] = Day 7, ordinal score at baseline 2, tradipitant N = 4
[2] = Day 7, ordinal score at baseline 3, tradipitant N = 13
[3] = Day 7, ordinal score at baseline 4, tradipitant N = 9
[4] = Day 7, overall, tradipitant N = 28
[5] = Day 28, ordinal score at baseline 2, tradipitant N = 4
[6] = Day 28, ordinal score at baseline 3, tradipitant N = 13
[7] = Day 28, ordinal score at baseline 4, tradipitant N = 9
[8] = Day 28, overall, tradipitant N = 28
[9] = ordinal score at baseline 2, tradipitant N = 4
[10] = ordinal score at baseline 3, tradipitant N = 13

**Q.** With `O=C(c1ccccc1Cl)c1cccnc1-c1nnn(Cc2cc(C(F)(F)F)cc(C(F)(F)F)c2)c1-c1ccncc1` [Tradipitant] as the compound, how does the “Median time to responder” value [1] read?
**A.** Its value is 4 days.

**Q.** What about the “Mortality, KM estimate” value [1] of the same compound?
**A.** Its value is 25.0%.

**Q.** And the “No. of responders (improvement of 2 or more points on 7 point ordinal scale)” value (“No. of responders” for short) [1]?
**A.** Its value is 3.

**Q.** And the “Mortality, KM estimate” value [2]?
**A.** The value was 0.0%.

**Q.** What about the “No. of responders” value [2] of the same compound?
**A.** The value was 2.

**Q.** What about the “Median time to responder” value [3] of the same compound?
**A.** The value was 4 days.

**Q.** And the “Mortality, KM estimate” value [3]?
**A.** The value was 25.0%.

**Q.** And the “No. of responders” value [3]?
**A.** Its value is 6.

**Q.** And the “Mortality, KM estimate” value [4]?
**A.** The value was 9.8%.

**Q.** And the “No. of responders” value [4]?
**A.** The value was 13.

**Q.** What about the “Hazard ratio (95% CI), responder as improvement of 2 or more points” value (Day 7, overall) of the same compound?
**A.** Its value is 2.55.

**Q.** And the “Median time to responder” value [5]?
**A.** The value was 4 days.

**Q.** And the “Mortality, KM estimate” value [5]?
**A.** Its value is 50.0%.

**Q.** And the “No. of responders” value [5]?
**A.** The value was 3.

**Q.** What about the “Median time to responder” value [6] of the same compound?
**A.** Its value is 27 days.

**Q.** What about the “Mortality, KM estimate” value [6] of the same compound?
**A.** Its value is 9.1%.

**Q.** And the “No. of responders” value [6]?
**A.** Its value is 4.

**Q.** And the “Median time to responder” value [7]?
**A.** Its value is 4 days.

**Q.** And the “Mortality, KM estimate” value [7]?
**A.** The value was 25.0%.

**Q.** And the “No. of responders” value [7]?
**A.** The value was 7.

**Q.** And the “Median time to responder” value [8]?
**A.** Its value is 10 days.

**Q.** And the “Mortality, KM estimate” value [8]?
**A.** The value was 20.4%.

**Q.** What about the “No. of responders” value [8] of the same compound?
**A.** The value was 16.

**Q.** What about the “Hazard ratio (95% CI), responder as improvement of 2 or more points” value (Day 28, overall) of the same compound?
**A.** Its value is 1.55.

**Q.** And the “No. of deaths by day 7” value [9]?
**A.** Its value is 1.

**Q.** What about the “No. of deaths by day 28” value [9] of the same compound?
**A.** The value was 2.

**Q.** What about the “Ordinal Score at Day 7 = 1 (Death), % of patients” value [9] of the same compound?
**A.** Its value is “(25.0) %”.

**Q.** What about the “Ordinal Score at Day 7 = 1 (Death), no. of patients” value [9] of the same compound?
**A.** Its value is 1.

**Q.** And the “Ordinal Score at Day 7 = 2 (Hospitalized, on invasive mechanical ventilation or ECMO), % of patients” value [9]?
**A.** Its value is “(25.0) %”.

**Q.** What about the “Ordinal Score at Day 7 = 2 (Hospitalized, on invasive mechanical ventilation or ECMO), no. of patients” value [9] of the same compound?
**A.** Its value is 1.

**Q.** What about the “Ordinal Score at Day 7 = 3 (Hospitalized, on non-invasive ventilation or high flow oxygen devices), % of patients” value [9] of the same compound?
**A.** The value was “(0.0) %”.

**Q.** And the “Ordinal Score at Day 7 = 3 (Hospitalized, on non-invasive ventilation or high flow oxygen devices), no. of patients” value [9]?
**A.** The value was 0.

**Q.** What about the “Ordinal Score at Day 7 = 4 (Hospitalized, requiring supplemental oxygen), % of patients” value [9] of the same compound?
**A.** Its value is “(25.0) %”.

**Q.** And the “Ordinal Score at Day 7 = 4 (Hospitalized, requiring supplemental oxygen), no. of patients” value [9]?
**A.** The value was 1.

**Q.** And the “Ordinal Score at Day 7 = 5 (Hospitalized, not requiring supplemental oxygen), % of patients” value [9]?
**A.** Its value is “(25.0) %”.

**Q.** What about the “Ordinal Score at Day 7 = 5 (Hospitalized, not requiring supplemental oxygen), no. of patients” value [9] of the same compound?
**A.** The value was 1.

**Q.** What about the “Ordinal Score at Day 7 = 7 (Not hospitalized), % of patients” value [9] of the same compound?
**A.** Its value is “(0.0) %”.

**Q.** What about the “Ordinal Score at Day 7 = 7 (Not hospitalized), no. of patients” value [9] of the same compound?
**A.** The value was 0.

**Q.** What about the “Ordinal Score at Day 28 = 1 (Death), % of patients” value [9] of the same compound?
**A.** Its value is “(50.0) %”.

**Q.** And the “Ordinal Score at Day 28 = 1 (Death), no. of patients” value [9]?
**A.** Its value is 2.

**Q.** And the “Ordinal Score at Day 28 = 2 (Hospitalized, on invasive mechanical ventilation or ECMO), % of patients” value [9]?
**A.** The value was “(0.0) %”.

**Q.** What about the “Ordinal Score at Day 28 = 2 (Hospitalized, on invasive mechanical ventilation or ECMO), no. of patients” value [9] of the same compound?
**A.** Its value is 0.

**Q.** What about the “Ordinal Score at Day 28 = 3 (Hospitalized, on non-invasive ventilation or high flow oxygen devices), % of patients” value [9] of the same compound?
**A.** The value was “(0.0) %”.

**Q.** What about the “Ordinal Score at Day 28 = 3 (Hospitalized, on non-invasive ventilation or high flow oxygen devices), no. of patients” value [9] of the same compound?
**A.** Its value is 0.

**Q.** What about the “Ordinal Score at Day 28 = 4 (Hospitalized, requiring supplemental oxygen), % of patients” value [9] of the same compound?
**A.** Its value is “(0.0) %”.

**Q.** What about the “Ordinal Score at Day 28 = 4 (Hospitalized, requiring supplemental oxygen), no. of patients” value [9] of the same compound?
**A.** The value was 0.

**Q.** What about the “Ordinal Score at Day 28 = 7 (Not hospitalized), % of patients” value [9] of the same compound?
**A.** The value was “(50.0) %”.

**Q.** What about the “Ordinal Score at Day 28 = 7 (Not hospitalized), no. of patients” value [9] of the same compound?
**A.** The value was 2.

**Q.** What about the “No. of deaths by day 7” value [10] of the same compound?
**A.** The value was 0.

**Q.** And the “No. of deaths by day 28” value [10]?
**A.** Its value is 1.

**Q.** What about the “Ordinal Score at Day 7 = 1 (Death), % of patients” value [10] of the same compound?
**A.** Its value is “(0.0) %”.

**Q.** And the “Ordinal Score at Day 7 = 1 (Death), no. of patients” value [10]?
**A.** The value was 0.

**Q.** And the “Ordinal Score at Day 7 = 2 (Hospitalized, on invasive mechanical ventilation or ECMO), % of patients” value [10]?
**A.** Its value is “(61.5) %”.

**Q.** And the “Ordinal Score at Day 7 = 2 (Hospitalized, on invasive mechanical ventilation or ECMO), no. of patients” value [10]?
**A.** Its value is 8.

**Q.** And the “Ordinal Score at Day 7 = 3 (Hospitalized, on non-invasive ventilation or high flow oxygen devices), % of patients” value [10]?
**A.** The value was “(23.1) %”.

**Q.** What about the “Ordinal Score at Day 7 = 3 (Hospitalized, on non-invasive ventilation or high flow oxygen devices), no. of patients” value [10] of the same compound?
**A.** The value was 3.

**Q.** What about the “Ordinal Score at Day 7 = 4 (Hospitalized, requiring supplemental oxygen), % of patients” value [10] of the same compound?
**A.** The value was “(0.0) %”.

**Q.** What about the “Ordinal Score at Day 7 = 4 (Hospitalized, requiring supplemental oxygen), no. of patients” value [10] of the same compound?
**A.** Its value is 0.

**Q.** And the “Ordinal Score at Day 7 = 5 (Hospitalized, not requiring supplemental oxygen), % of patients” value [10]?
**A.** The value was “(7.7) %”.

**Q.** And the “Ordinal Score at Day 7 = 5 (Hospitalized, not requiring supplemental oxygen), no. of patients” value [10]?
**A.** The value was 1.

**Q.** What about the “Ordinal Score at Day 7 = 7 (Not hospitalized), % of patients” value [10] of the same compound?
**A.** The value was “(7.7) %”.
